# Source: US9234025B2, “Extracellular allosteric inhibitor binding domain from a tyrosine kinase receptor” (SANOFI, priority 2009, dated 2016)
# Columns and labels:
# [1] = system: cognate receptor of >100 distinct ligands; test: SPA selectivity, >100 distinct ligands to their cognate receptor; assay type: binding; conditions: ligands with related structural homology or entirely different chemical composition
# [2] = target: T1, FGFR2 (Homo sapiens, UniProt P21802); test: FGF ligand binding to FGFR2 in intact cells; conditions: receptor expressed in intact cells
# T1 construct: or the expression of the entire intact receptor in its native environment
# [3] = target: T2, hFGFR1IIIcα-Hemagluttinin (Homo sapiens, UniProt P11362); test: FGFR1 phosphorylation in rat fat-pad endothelial cells; assay type: cell-based
# T2 construct: expressed in transfected cells; host or cells: rat fat-pad endothelial cells (RFPEC)
# Protocol: Rat fat-pad endothelial cells, stably transfected with hFGFR1IIIcα-Hemagluttinin, were grown to 80-90% confluency and serum starved (0.5% FBS) for 24 h. Stimulation was performed during 5 minutes with FGF2 at 2 ng/ml in combination with SSR or DMSO (as control). Cell lysates were centrifuged at 12,000 g for 10 min, and the supernatants were collected. HA-tagged proteins were immunoprecipitated by incubation of cell lysates overnight at 4° C. in the presence of agarose conjugated anti-HA antibodies. Immune complexes were washed three times with 1 ml of lysis buffer; proteins were eluted via incubation with 50 μl of 2×SDS sample buffer and boiling. Proteins were separated on Novex polyacrylamide gels (Invitrogen, Carlsbad, Calif.) and subsequently transferred onto Hybond ECL nitrocellulose membranes (Amersham Pharmacia). Following incubation with 5% non-fat milk powder in PBS, the membranes were incubated overnight at 4° C. with the following antibodies: pFGFR (CST: 3471) and FGFR1 (CST: 3472).
# [4] = target: T1, FGFR2; test: FGFR2 multimerization; assay type: biochemical
# [5] = target: FGF2 (Homo sapiens, UniProt P09038); test: FGF2 dimerization; assay type: biochemical
# [6] = system: HUVEC; test: HUVEC chemotactic migration; assay type: cell-based, human; conditions: FGFR1-driven
# Protocol: Confluent HUVEC cells are harvested and resuspended in RPMI 1640 (Invitrogen, 32404-014) without FCS, 2 mM glutamine, MEM non-essential amino-acid 1× (Gibco, 11140-035), MEM sodium pyruvate 1× (Gibco, 11360-039) at 0.8 10^6 cells/ml. 250 μl of cell solution is distributed with 4×SSR in the upper chamber of 24-wells BD Biocoat Angiogenesis System for endothelial cell migration (BD Biocoat, 354144) and 750 μl of medium in the lower chamber with FGF2 (R&D, 234-FSE-025), FGF4 (R&D, 235-F4-025) or FGF-19 (in house produced) at 67 ng/ml. Plates are incubated 22 h at 37° C. in a CO2 chamber. Then, plate insert is removed, and placed in a new 24-wells plate (Falcon, 353504) that contains 500 μL of calcein (Molecular probes, C-3100) for 90 min. Then migrated cells are fluorescent and migration is measured by a […] with downstairs reading following 485 nm excitation and 535 nm emission.
# [7] = system: B9-FGFR3TD cell line; test: B9 myeloma cell proliferation, FGFR3TD (K650E); assay type: cell-based; conditions: constitutively activated FGFR3 K650E
# Protocol: Cell proliferation was analysed on exponentially growing cells that were starved for 16 hours in IMDM (Invitrogen, 31980048), 0.2% FBS, 2 mM glutamine containing medium and seeded at 4,000 cells/well in 96-well microplates. After exposure to mitogens and/or SSR for 72 hours, cell proliferation was assessed with the use of the CellTiter 96 AQueous One Solution Cell Proliferation Assay (Promega, Madison, Wis., USA) according to manufacturer's instructions.
# For studying SSR effect on FGFR3, the proliferation of B9-myeloma cells, expressing either FGFR3WT or FGFR3TD (a constitutively activated FGFR3 variant induced by the K650E mutation, even in the absence of any ligand; Truedel et al; blood 2006), was assayed by stimulation with FGF1 (25 ng/ml).
# [8] = system: HUVEC; test: cell migration with various growth factors (modified Boyden chamber); assay type: cell-based, human; conditions: SSR 1 μM
# Protocol: Cell migration was assessed by a modified Boyden chamber assay, by using 24-well inserts containing 8 μm pore size transwell permeable supports with a polycarbonate membrane (Costar, Corning Inc.). Exponentially growing cells were starved in 0.2% FBS containing medium for 16 hours and resuspended at 5×10^5 cells/ml in the same low serum medium. 100 μl of the cell suspension were seeded in the upper chamber, while chemoattractants and/or SSR were placed in the lower chamber. Chemoattractants tested include: human PDGF-BB, IGF-I, PIGF, EGF, all at 100 ng/ml, in the presence or absence of SSR (1 μM). 10% FBS containing medium was used a positive control. After 6 hours incubation at 37° C., cells on the upper side of the membrane were scraped using a cotton swab, while migrated cells on the lower surface were fixed with 1% paraformaldehyde in PBS and nuclei stained with DAPI for quantification using a fluorescent microsope. Quanitifcation is performed by making 5 random images at a magnification of 10× and by counting the number of nuclei.
# [9] = target: T3, TNF-R1 extracellular protein (Homo sapiens, UniProt P19438); test: STD-NMR binding assay, TNF-R1 control; conditions: STD-NMR specificity control
# T3 construct: made in house
# [10] = system: FGFR2^∂23-Y328D; test: FGF2-induced ERK1/2 phosphorylation in HEK293 cells, FGFR2 Y328D; assay type: cell-based, human; conditions: Erk1/2 western blot densitometry IC50
# Protocol: HEK293 cells were either transiently of stably transfected (using FuGENE 6, Roche) with hFGFR2IIIca or hFGFR2IIIca-Y328D cloned in pcDNA3 (Invitrogen). Stably transfected cells were grown in G418 (400 μg/ml) containing medium. Before stimulation, the cells were starved overnight in DMEM (0% serum), and pre-incubated with […] at the required concentration. The cells were subsequently stimulated with FGF2 (concentration between 0.5-10 ng/ml) for 5 min at 37° C. with or without SSR or SU5402 at 1 μM. After washing with ice-cold phosphate-buffered saline containing phosphatase inhibitors (Roche), cells were lysed in RIPA buffer (Tris 30 mM HCl pH 7.5, 150 mM NaCl, 1 mM EDTA, 1% triton-X, 0.5% w/v deoxycholate, containing phophatase and protease inhibitors as described by the manufacturer (Roche)). Cell lysates were centrifuged at 12,000 g for 10 min, and the supernatants were collected. Proteins were separated on Novex polyacrylamide gels (Invitrogen, Carlsbad, Calif.) and subsequently transferred onto Hybond ECL nitrocellulose membranes (Amersham Pharmacia). Following incubation with 5% non-fat milk powder in PBS, the membranes were incubated overnight at 4° C. with the following antibodies: phospho-ERK1/2 (CST:9101), phospho-FRS2 (CST:3861), phospho-PLCγ (CST:2821) and FGFR2 (F0300, Sigma).
# T1 sequence (P21802 22-821): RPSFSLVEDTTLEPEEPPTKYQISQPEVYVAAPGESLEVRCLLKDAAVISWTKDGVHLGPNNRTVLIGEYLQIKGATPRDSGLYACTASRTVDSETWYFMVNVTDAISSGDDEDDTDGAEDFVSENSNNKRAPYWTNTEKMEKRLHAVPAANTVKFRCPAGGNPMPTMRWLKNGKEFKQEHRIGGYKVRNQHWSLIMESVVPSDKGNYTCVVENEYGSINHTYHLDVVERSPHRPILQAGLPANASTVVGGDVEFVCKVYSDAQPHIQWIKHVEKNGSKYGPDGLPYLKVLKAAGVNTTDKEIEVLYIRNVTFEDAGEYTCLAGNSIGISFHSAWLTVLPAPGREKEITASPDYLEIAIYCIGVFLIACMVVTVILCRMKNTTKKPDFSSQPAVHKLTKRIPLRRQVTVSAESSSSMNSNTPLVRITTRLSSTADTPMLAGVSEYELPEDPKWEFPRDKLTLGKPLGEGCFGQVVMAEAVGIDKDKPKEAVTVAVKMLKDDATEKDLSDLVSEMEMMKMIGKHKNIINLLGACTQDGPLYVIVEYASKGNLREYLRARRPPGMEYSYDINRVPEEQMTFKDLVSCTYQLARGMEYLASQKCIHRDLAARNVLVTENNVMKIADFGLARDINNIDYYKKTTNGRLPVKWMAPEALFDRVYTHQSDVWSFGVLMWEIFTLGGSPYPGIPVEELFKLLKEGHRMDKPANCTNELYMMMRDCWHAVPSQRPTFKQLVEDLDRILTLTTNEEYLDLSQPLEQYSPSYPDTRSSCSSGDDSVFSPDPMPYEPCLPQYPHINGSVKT
# T2 sequence (P11362 22-822): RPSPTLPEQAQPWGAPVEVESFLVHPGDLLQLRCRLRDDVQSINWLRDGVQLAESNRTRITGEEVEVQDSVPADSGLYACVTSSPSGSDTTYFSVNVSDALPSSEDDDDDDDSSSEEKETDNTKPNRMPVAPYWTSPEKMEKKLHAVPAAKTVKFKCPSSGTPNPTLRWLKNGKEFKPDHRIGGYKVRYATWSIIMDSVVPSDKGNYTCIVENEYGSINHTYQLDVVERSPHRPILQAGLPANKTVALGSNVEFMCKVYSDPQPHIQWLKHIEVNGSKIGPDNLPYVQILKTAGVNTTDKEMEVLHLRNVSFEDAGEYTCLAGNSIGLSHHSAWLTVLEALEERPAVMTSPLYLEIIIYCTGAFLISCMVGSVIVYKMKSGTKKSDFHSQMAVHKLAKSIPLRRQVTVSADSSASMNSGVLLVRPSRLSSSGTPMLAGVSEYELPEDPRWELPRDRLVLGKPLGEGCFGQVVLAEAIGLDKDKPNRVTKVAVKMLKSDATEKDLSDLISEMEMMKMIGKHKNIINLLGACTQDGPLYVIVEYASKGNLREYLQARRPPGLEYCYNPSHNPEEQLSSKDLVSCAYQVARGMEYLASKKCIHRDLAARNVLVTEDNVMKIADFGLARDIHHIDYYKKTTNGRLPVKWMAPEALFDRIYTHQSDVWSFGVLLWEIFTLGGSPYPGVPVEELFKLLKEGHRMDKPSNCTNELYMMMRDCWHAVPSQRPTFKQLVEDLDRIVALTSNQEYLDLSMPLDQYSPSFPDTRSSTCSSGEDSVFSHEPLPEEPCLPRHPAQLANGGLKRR
# T3 sequence (P19438 30-211 limits assumed): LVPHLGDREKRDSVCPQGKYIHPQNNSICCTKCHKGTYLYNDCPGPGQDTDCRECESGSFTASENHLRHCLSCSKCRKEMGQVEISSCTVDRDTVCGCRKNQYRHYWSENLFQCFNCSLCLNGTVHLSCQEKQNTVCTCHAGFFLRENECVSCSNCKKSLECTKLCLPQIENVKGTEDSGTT
# Sequence of FGF2 (P09038 134-288, species assumed): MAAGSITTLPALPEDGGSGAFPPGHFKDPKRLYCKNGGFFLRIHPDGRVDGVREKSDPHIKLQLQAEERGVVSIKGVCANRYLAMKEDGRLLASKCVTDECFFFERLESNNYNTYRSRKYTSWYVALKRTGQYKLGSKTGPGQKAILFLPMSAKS
smiles,measurement,setting,value
COc1c(C)c(C(=O)c2ccc(N)c(C(=O)[O-])c2)n2ccccc12.[Na+] [SSR],binding of >100 distinct ligands to their cognate receptor,[1],not inhibiting
same,binding of FGF2 or FGF4 to FGFR2,[2],failed to antagonize
same,FGF2-induced FGFR1 tyrosine phosphorylation,[3]; SSR in the nanomolar concentration range,highly reduced
same,residual FGFR1 tyrosine phosphorylation,[3]; even at high doses,does not completely eliminate FGFR1 tyrosine phosphorylation
same,FGFR2 dimerization (multimerization),[4],not able to inhibit
same,FGF2 dimerization,[5],not able to inhibit
same,FGF2-induced HUVEC chemotactic migration,[6],reduction of FGF2-induced HUVEC chemotactic migration
same,proliferation of B9-FGFR3TD cells,[7],insensitve
same,cellular response (migration) induced by EGF,[8]; EGF 100 ng/ml,did not affect
same,cellular response (migration) induced by IGF,[8]; IGF-I 100 ng/ml,did not affect
same,cellular response (migration) induced by PDGF-BB,[8]; PDGF-BB 100 ng/ml,did not affect
same,cellular response (migration) induced by PIGF,[8]; PIGF 100 ng/ml,did not affect
same,binding to TNF-R1 extracellular protein,[9],no binding is observed
same,"sensitivity to SSR inhibition, FGFR2-Y328D compared to FGFR2-WT",[10],about 5 times less sensitive
